Data reported in patent EP0282292B1, “Improved chelator for anaerobic sealants” (LOCTITE (IRELAND) Ltd., priority 1987, dated 1988).
Like-named read-outs stand apart in the source and are kept apart here.

Columns and labels:
[1] = anaerobic sealant formulation with acidic components
[2] = Stability at 82°C (time to first gellation) of curable formulation spiked with copper; details: for level of chelator able to counteract added copper: 0.5 ppm of added copper; for stability (time to first gellation): 82°C, spiked with copper after one week at room temperature, supernatant only

| Compound | time to precipitation from solution after addition [1] [h] | level of chelator able to counteract added copper [2] [ppm] | stability (time to first gellation) [2] | chelator concentration, Sampled after 0.5hr. standing-supernatant liquid taken (1% Maleic Acid in PEGMA) [ppm] | chelator concentration, Stirred 0.5hr. mixture sampled (1% Maleic Acid in PEGMA) [ppm] | chelator concentration, supernatant after 4 days standing (1% Maleic Acid in PEGMA) [ppm] | chelator concentration, supernatant after 5 days standing (1% Maleic Acid in PEGMA) [ppm] | chelator concentration, Sampled after 0.5hr. standing-supernatant liquid taken (3% Saccharin in PEGMA) [ppm] | chelator concentration, Stirred 0.5hr. mixture sampled (3% Saccharin in PEGMA) [ppm] | chelator concentration, supernatant after 4 days standing (3% Saccharin in PEGMA) [ppm] | chelator concentration, supernatant after 5 days standing (3% Saccharin in PEGMA) [ppm] |
| --- | --- | --- | --- | --- | --- | --- | --- | --- | --- | --- | --- |
| O=C([O-])CN(CCN(CC(=O)[O-])CC(=O)[O-])CC(=O)[O-].[Na+].[Na+].[Na+].[Na+] [EDTA Na₄, ethylenediaminetetraacetic acid tetrasodium salt] | ≤ 24 |  |  |  |  |  |  |  |  |  |  |
| CC(O)CN(CCN(CC(C)O)CC(C)O)CC(C)O (stereo not shown) [EDTPA, tetrakis-(2-hydroxy-propyl)-ethylenediamine] |  | 300 | no loss of chelation efficiency on aging |  |  |  |  |  |  |  |  |
| O=C([O-])CN(CCO)CCN(CC(=O)[O-])CC(=O)[O-].[Na+].[Na+].[Na+] [HEDTA Na₃, N-hydroxyethylenediaminetriacetic acid trisodium salt] |  | 300 | no loss of chelation efficiency on aging | 110 | 826 | 175 | 180 | 65 | 904 | 69 | 75 |
